Test results from patent US20230094404A1, “METHOD FOR PREPARATION OF HETEROCYCLICAMINE DERIVATIVES” (Daewoong Pharmaceutical Co., Ltd., priority 2020, published 2023).

Legend:
[1] = biological target: T1, BTK (Homo sapiens, UniProt Q06187); assay: ADP-Glo BTK Kinase enzyme system inhibitory activity; assay type: biochemical; conditions: ADP-Glo kit (Promega), ATP 10 uM, duplicate; read-out: inhibitory activity against BTK (BTK IC50)
T1 construct: purchased Promega Corporation
Description: (§1) Inhibitory activities against BTK and ITK were measured for the compound represented by Chemical Formula 1 prepared in the above Examples as follows.
The inhibitory activities against BTK were evaluated using ‘ADP-GIo™+BTK Kinase enzyme system’ kit (Promega Corporation). In a white 96-well plate, 10 ? of BTK enzyme prepared so as to have a final concentration of 10 ng/ ? was mixed with 5 ? of compounds having a final concentration of 1 uM in the case of evaluating a single concentration of compound and a concentration of 1000, 200, 40, 8, 1.6 and 0.32 nM in the case of IC50 evaluation, and then reacted at room temperature for 15 minutes. 5 ? of substrate and 5 ? of ATP prepared so as to have a final concentration of 10 uM were added to the plate on which reactions were completed, and then allowed to react at 30° C. for 1 hour. All wells of the plate on which reactions were completed were treated with 25 ? of ADP-Glo™ reagent and allowed to react at 30° C. for 40 minutes. […] For the plate on which all reactions were completed, luminescence was measured and the results were calculated. Evaluation was carried out in duplicate, and negative control and positive control were calculated depending on whether or not the enzyme was added without treatment of the compound. The IC50 was calculated based on the calculated values.

[2] = biological target: T2, ITK (Homo sapiens, UniProt Q08881); assay: ADP-Glo ITK Kinase enzyme system inhibitory activity; assay type: biochemical; conditions: ADP-Glo kit (Promega), ATP 25 uM, duplicate; read-out: inhibitory activity against ITK (ITK IC50)
T2 construct: purchased Promega Corporation
T2 sequence (Q08881 1-620): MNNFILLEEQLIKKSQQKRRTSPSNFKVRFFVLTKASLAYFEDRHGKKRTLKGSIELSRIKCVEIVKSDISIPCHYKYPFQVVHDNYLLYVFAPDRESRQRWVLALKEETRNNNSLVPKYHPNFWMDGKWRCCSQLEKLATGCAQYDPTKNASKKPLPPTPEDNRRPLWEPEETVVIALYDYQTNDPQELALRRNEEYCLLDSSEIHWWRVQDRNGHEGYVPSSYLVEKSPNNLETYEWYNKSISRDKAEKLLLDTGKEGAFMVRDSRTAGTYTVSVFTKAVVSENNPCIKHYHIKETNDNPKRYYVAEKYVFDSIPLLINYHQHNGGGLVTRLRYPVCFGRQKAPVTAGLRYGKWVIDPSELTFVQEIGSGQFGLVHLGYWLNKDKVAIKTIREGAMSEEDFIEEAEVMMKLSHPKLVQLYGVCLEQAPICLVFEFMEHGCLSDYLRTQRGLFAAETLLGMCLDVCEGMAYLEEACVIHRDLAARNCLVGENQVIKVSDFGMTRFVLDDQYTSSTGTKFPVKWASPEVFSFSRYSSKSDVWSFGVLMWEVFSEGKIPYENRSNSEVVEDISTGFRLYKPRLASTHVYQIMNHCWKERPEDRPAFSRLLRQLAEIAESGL
Description: as §1
In addition, the inhibitory activity against ITK was evaluated using ‘ADP-GIo™+ITK Kinase enzyme system’ kit (Promega Corporation). In a white 96-well plate, 10 ? of ITK enzyme prepared so as to have a final concentration of 4 ng/ ? was mixed with 5 ? of compounds having a final concentration of 1 uM in the case of evaluating a single concentration of compound and a concentration of 1000, 200, 40, 8, 1.6 and 0.32 nM in the case of IC50 evaluation, and then reacted at room temperature for 15 minutes. To the plate on which reactions were completed, 5 ul of substrate and 5 ? of ATP prepared so as to have a final concentration of 25 uM were added and then allowed to react at 30° C. for 1 hour. All wells of the plate on which reactions were completed were treated with 25 ? of ADP-Glo™ reagent and then allowed to react at 30° C. for 40 minutes. […] For the plate on which all reactions were completed, luminescence was measured and the results were calculated. Evaluation was carried out in duplicate, and negative control and positive control were calculated depending on whether or not the enzyme was added without treatment of the compound. The IC50 was calculated based on the calculated values.

T1 sequence (Q06187 whole entry): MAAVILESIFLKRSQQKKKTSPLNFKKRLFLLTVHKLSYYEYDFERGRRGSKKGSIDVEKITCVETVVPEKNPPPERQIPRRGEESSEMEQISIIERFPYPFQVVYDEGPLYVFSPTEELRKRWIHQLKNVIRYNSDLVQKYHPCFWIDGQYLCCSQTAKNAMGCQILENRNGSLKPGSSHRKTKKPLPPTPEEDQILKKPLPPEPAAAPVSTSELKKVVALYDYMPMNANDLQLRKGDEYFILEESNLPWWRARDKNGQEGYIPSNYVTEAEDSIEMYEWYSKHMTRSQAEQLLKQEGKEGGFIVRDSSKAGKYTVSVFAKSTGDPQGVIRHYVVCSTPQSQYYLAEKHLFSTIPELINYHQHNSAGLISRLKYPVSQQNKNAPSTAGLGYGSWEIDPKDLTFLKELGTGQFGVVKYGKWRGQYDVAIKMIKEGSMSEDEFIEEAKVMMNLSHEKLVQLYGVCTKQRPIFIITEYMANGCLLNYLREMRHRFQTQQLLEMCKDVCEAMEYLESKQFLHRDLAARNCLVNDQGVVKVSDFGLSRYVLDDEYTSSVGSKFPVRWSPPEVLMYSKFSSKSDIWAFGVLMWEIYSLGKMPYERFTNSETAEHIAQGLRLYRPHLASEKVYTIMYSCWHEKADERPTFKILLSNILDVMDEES

**Q.** With `C=CC(=O)N1CCC[C@H](Nc2cc(CN3CCOCC3)cc(Nc3ncc(C)s3)n2)C1` [Chemical Formula 1, (S)-1-(3-((6-((5-methylthiazol-2-yl)amino)-4-(morpholinomethyl)pyridin-2-yl)amino)piperidin-1-yl)prop-2-en-1-one] as the compound, how does the IC50 [1] read?
**A.** The IC50 was 0.4 to 1.4 nM.

**Q.** And the IC50 [2]?
**A.** The IC50 was 1 to 1.7 nM.
